Literature values in patent US4610818A, “N-acyl derivatives of dipeptides, their preparation and their use in the therapy of disorders, and agents for this purpose” (BASF Aktiengesellschaft, priority 1982, dated 1986).

Tested on: tremor, rigor and akinesia
Conditions: Parkinson patients, MIF alone or in combination with L-dopa

**Q.** Which “effect on tremor, rigor and akinesia” value does the source give for L-Pro-L-Leu-Gly-NH2 [MIF] here?
**A.** The value was “advantageous effect”.
